From the NIST ThermoML archive (doi:10.1021/je050288d)
Numbers after ± are expanded uncertainties.

Conditions: Gas

O [water]
Conditions | viscosity [mPa·s]
297.39 K, Mass density=0.0402 kg/m3 | 0.009665 ± 9.5e-05
297.88 K, Mass density=0.0668 kg/m3 | 0.009654 ± 9.5e-05
298.02 K, Mass density=0.0247 kg/m3 | 0.009675 ± 9.5e-05
298.08 K, Mass density=0.0368 kg/m3 | 0.009683 ± 9.5e-05
298.17 K, Mass density=0.1654 kg/m3 | 0.009693 ± 9.5e-05
298.3 K, Mass density=0.0186 kg/m3 | 0.0097 ± 9.5e-05
298.38 K, Mass density=0.1081 kg/m3 | 0.009686 ± 9.5e-05
298.57 K, Mass density=0.1973 kg/m3 | 0.009684 ± 9.5e-05
299.06 K, Mass density=0.0793 kg/m3 | 0.009709 ± 9.5e-05
300.07 K, Mass density=0.2351 kg/m3 | 0.009725 ± 9.5e-05
310.8 K, Mass density=0.0186 kg/m3 | 0.01013 ± 9.8e-05
310.87 K, Mass density=0.0368 kg/m3 | 0.01013 ± 9.8e-05
310.96 K, Mass density=0.0668 kg/m3 | 0.01011 ± 9.8e-05
311.24 K, Mass density=0.1654 kg/m3 | 0.01014 ± 9.8e-05
311.3 K, Mass density=0.0793 kg/m3 | 0.01013 ± 9.8e-05
311.39 K, Mass density=0.1081 kg/m3 | 0.01013 ± 9.8e-05
311.45 K, Mass density=0.0402 kg/m3 | 0.01015 ± 9.8e-05
311.77 K, Mass density=0.0247 kg/m3 | 0.01015 ± 9.8e-05
312.25 K, Mass density=0.2351 kg/m3 | 0.01014 ± 9.8e-05
313.01 K, Mass density=0.1973 kg/m3 | 0.01017 ± 9.8e-05
324.45 K, Mass density=0.0668 kg/m3 | 0.01059 ± 0.0001
324.54 K, Mass density=0.0247 kg/m3 | 0.0106 ± 0.0001
324.54 K, Mass density=0.1654 kg/m3 | 0.0106 ± 0.0001
324.74 K, Mass density=0.2351 kg/m3 | 0.01058 ± 0.0001
325 K, Mass density=0.0402 kg/m3 | 0.01062 ± 0.0001
325.15 K, Mass density=0.1973 kg/m3 | 0.01059 ± 0.0001
325.42 K, Mass density=0.1081 kg/m3 | 0.01062 ± 0.0001
325.96 K, Mass density=0.0368 kg/m3 | 0.01065 ± 0.0001
331.18 K, Mass density=0.0186 kg/m3 | 0.01083 ± 0.0001
331.47 K, Mass density=0.0793 kg/m3 | 0.01084 ± 0.0001
338.02 K, Mass density=0.1973 kg/m3 | 0.01103 ± 0.0001
338.38 K, Mass density=0.2351 kg/m3 | 0.01105 ± 0.0001
338.47 K, Mass density=0.0247 kg/m3 | 0.01108 ± 0.0001
338.71 K, Mass density=0.0368 kg/m3 | 0.0111 ± 0.0001
338.79 K, Mass density=0.0793 kg/m3 | 0.01108 ± 0.0001
338.83 K, Mass density=0.0186 kg/m3 | 0.01111 ± 0.0001
339.39 K, Mass density=0.0402 kg/m3 | 0.01112 ± 0.0001
340.17 K, Mass density=0.1081 kg/m3 | 0.01113 ± 0.0001
341.28 K, Mass density=0.0668 kg/m3 | 0.01117 ± 0.0001
352.03 K, Mass density=0.1973 kg/m3 | 0.01153 ± 0.00011
352.05 K, Mass density=0.1654 kg/m3 | 0.01154 ± 0.00011
352.17 K, Mass density=0.0668 kg/m3 | 0.01156 ± 0.00011
352.37 K, Mass density=0.2351 kg/m3 | 0.01154 ± 0.00011
352.75 K, Mass density=0.0186 kg/m3 | 0.0116 ± 0.00011
352.77 K, Mass density=0.0402 kg/m3 | 0.0116 ± 0.00011
352.79 K, Mass density=0.0793 kg/m3 | 0.01159 ± 0.00011
352.91 K, Mass density=0.0247 kg/m3 | 0.0116 ± 0.00011
353.16 K, Mass density=0.1081 kg/m3 | 0.0116 ± 0.00011
353.6 K, Mass density=0.0368 kg/m3 | 0.01163 ± 0.00011
365.86 K, Mass density=0.2351 kg/m3 | 0.01203 ± 0.00011
366.29 K, Mass density=0.1973 kg/m3 | 0.01205 ± 0.00011
366.37 K, Mass density=0.0247 kg/m3 | 0.01209 ± 0.00011
366.48 K, Mass density=0.1654 kg/m3 | 0.01207 ± 0.00011
366.77 K, Mass density=0.1081 kg/m3 | 0.01209 ± 0.00011
366.96 K, Mass density=0.0793 kg/m3 | 0.01211 ± 0.00011
367.03 K, Mass density=0.0402 kg/m3 | 0.01212 ± 0.00011
367.1 K, Mass density=0.0668 kg/m3 | 0.0121 ± 0.00011
367.84 K, Mass density=0.0186 kg/m3 | 0.01216 ± 0.00011
368.22 K, Mass density=0.0368 kg/m3 | 0.01216 ± 0.00011
380.42 K, Mass density=0.0247 kg/m3 | 0.0126 ± 0.00011
380.43 K, Mass density=0.1973 kg/m3 | 0.01257 ± 0.00011
380.59 K, Mass density=0.0668 kg/m3 | 0.01259 ± 0.00011
380.6 K, Mass density=0.1654 kg/m3 | 0.01258 ± 0.00011
380.8 K, Mass density=0.0186 kg/m3 | 0.01263 ± 0.00011
381.09 K, Mass density=0.0402 kg/m3 | 0.01263 ± 0.00011
381.09 K, Mass density=0.0793 kg/m3 | 0.01263 ± 0.00011
381.33 K, Mass density=0.1081 kg/m3 | 0.01263 ± 0.00011
381.7 K, Mass density=0.2351 kg/m3 | 0.01262 ± 0.00011
382.14 K, Mass density=0.0368 kg/m3 | 0.01268 ± 0.00011
393.95 K, Mass density=0.1654 kg/m3 | 0.01309 ± 0.00012
394.29 K, Mass density=0.0668 kg/m3 | 0.0131 ± 0.00012
394.39 K, Mass density=0.0186 kg/m3 | 0.01314 ± 0.00012
394.43 K, Mass density=0.1973 kg/m3 | 0.0131 ± 0.00012
394.48 K, Mass density=0.2351 kg/m3 | 0.01311 ± 0.00012
394.72 K, Mass density=0.0247 kg/m3 | 0.01313 ± 0.00012
395 K, Mass density=0.1081 kg/m3 | 0.01314 ± 0.00012
395.38 K, Mass density=0.0402 kg/m3 | 0.01316 ± 0.00012
395.87 K, Mass density=0.0793 kg/m3 | 0.01319 ± 0.00012
396.61 K, Mass density=0.0368 kg/m3 | 0.01322 ± 0.00012
408.3 K, Mass density=0.1654 kg/m3 | 0.01365 ± 0.00012
408.32 K, Mass density=0.0668 kg/m3 | 0.01364 ± 0.00012
408.34 K, Mass density=0.2351 kg/m3 | 0.01365 ± 0.00012
408.76 K, Mass density=0.1973 kg/m3 | 0.01366 ± 0.00012
408.87 K, Mass density=0.0186 kg/m3 | 0.01369 ± 0.00012
409.37 K, Mass density=0.1081 kg/m3 | 0.01369 ± 0.00012
409.39 K, Mass density=0.0793 kg/m3 | 0.0137 ± 0.00012
409.46 K, Mass density=0.0402 kg/m3 | 0.01369 ± 0.00012
409.76 K, Mass density=0.0247 kg/m3 | 0.01371 ± 0.00012
411.18 K, Mass density=0.0368 kg/m3 | 0.01379 ± 0.00012
422.56 K, Mass density=0.2351 kg/m3 | 0.01421 ± 0.00012
422.69 K, Mass density=0.1654 kg/m3 | 0.01422 ± 0.00012
422.72 K, Mass density=0.0668 kg/m3 | 0.0142 ± 0.00012
422.75 K, Mass density=0.0247 kg/m3 | 0.01422 ± 0.00012
422.94 K, Mass density=0.1973 kg/m3 | 0.01422 ± 0.00012
423.26 K, Mass density=0.0186 kg/m3 | 0.01424 ± 0.00012
423.44 K, Mass density=0.0793 kg/m3 | 0.01425 ± 0.00012
423.62 K, Mass density=0.1081 kg/m3 | 0.01425 ± 0.00012
423.7 K, Mass density=0.0402 kg/m3 | 0.01426 ± 0.00012
423.8 K, Mass density=0.0368 kg/m3 | 0.01428 ± 0.00012
437.27 K, Mass density=0.2351 kg/m3 | 0.01482 ± 0.00013
437.71 K, Mass density=0.1654 kg/m3 | 0.01483 ± 0.00013
437.84 K, Mass density=0.1973 kg/m3 | 0.01484 ± 0.00013
438.04 K, Mass density=0.0668 kg/m3 | 0.01481 ± 0.00013
438.05 K, Mass density=0.1081 kg/m3 | 0.01483 ± 0.00013
438.48 K, Mass density=0.0368 kg/m3 | 0.01487 ± 0.00013
438.71 K, Mass density=0.0793 kg/m3 | 0.01486 ± 0.00013
438.77 K, Mass density=0.0186 kg/m3 | 0.01485 ± 0.00013
438.99 K, Mass density=0.0402 kg/m3 | 0.01486 ± 0.00013
440.41 K, Mass density=0.0247 kg/m3 | 0.01492 ± 0.00013
